Measurements reported in BigSolDB 2.1.

C=C[C@]1(C)C[C@@H](OC(=O)CSCCN(CC)CC)[C@]2(C)[C@H](C)CC[C@]3(CCC(=O)[C@H]32)[C@@H](C)[C@@H]1O.O=C(O)/C=C/C(=O)O
solubility (mole fraction)
Details | 283.15 K | 293.15 K | 303.15 K | 313.15 K | 323.15 K
in MIBK | 0.000867 | 0.00108 | 0.00134 | 0.00191 | 0.00254
in acetone | 0.00132 | 0.00257 | 0.00377 | 0.00574 | 0.00861
in acetonitrile | 8.33e-05 | 0.00016 | 0.000235 | 0.000495 | 0.000993
in ethyl acetate | 0.000525 | 0.000719 | 0.00102 | 0.00147 | 0.00215
in isobutyl acetate | 0.000437 | 0.000574 | 0.000744 | 0.00103 | 0.00143
in isopropanol | 0.00103 | 0.00124 | 0.00173 | 0.00288 | 0.00466
in isopropyl acetate | 0.00044 | 0.00061 | 0.000823 | 0.00118 | 0.00163
in methyl acetate | 0.000372 | 0.000443 | 0.000624 | 0.000964 | 0.00142
in n-butanol | 0.00276 | 0.00458 | 0.00596 | 0.00962 | 0.0173
in n-butyl acetate | 0.000517 | 0.000712 | 0.001 | 0.0013 | 0.00168
in toluene | 5.73e-05 | 9.62e-05 | 0.000174 | 0.000274 | 0.000537
